Source: the NIST ThermoML archive (doi:10.1021/je0340755)

Test: xn = mol fraction of the nth substance listed
Settings: 101.3 kPa, Liquid; for viscosity: Capillary tube (Ostwald / Ubbelohde) method

OCCCCO [1,4-butanediol] + O
Settings	mass density, 298.15 K [kg/m3]	mass density, 308.15 K [kg/m3]	mass density, 318.15 K [kg/m3]	speed of sound, 298.15 K [m/s]	speed of sound, 308.15 K [m/s]	speed of sound, 318.15 K [m/s]	viscosity, 298.15 K [mPa·s]	viscosity, 308.15 K [mPa·s]	viscosity, 318.15 K [mPa·s]
x2 = 0.055	1013.64	1007.37	1001.62	1609	1591	1574.6	68.26	42.31	27.43
x2 = 0.1534	1015.1	1008.7	1002.81	1623.6	1604.6	1586.7	59.73	37.48	24.34
x2 = 0.2472	1016.59	1010.06	1004.04	1637.5	1617.7	1598.8	51.48	32.83	21.39
x2 = 0.3542	1018.46	1011.78	1005.59	1658.6	1637.1	1615.4	42.26	27.6	18.04
x2 = 0.4531	1020.08	1013.29	1006.95	1678.2	1655.1	1632.8	33.95	22.83	15
x2 = 0.498	1020.71	1013.88	1007.49	1686	1662.5	–	30.26	20.69	13.63
x2 = 0.5578	1021.37	1014.52	–	1695.3	1671	–	25.51	17.9	11.84
x2 = 0.6513	1021.78	1014.99	–	1707.7	1684.1	–	18.65	13.72	9.148
x2 = 0.7496	1020.65	1014.15	–	1715.9	1693	–	12.57	9.702	6.533
x2 = 0.8475	1016.21	1010.43	–	1702.6	1685.5	–	7.83	6.132	4.179
x2 = 0.9081	1010.66	1005.69	–	1663.1	1655	–	5.31	4.059	2.8
x2 = 0.9152	1009.83	1004.98	–	1655.8	1648.7	–	5.014	3.816	2.639
x2 = 0.9253	1008.58	1003.91	–	1644.1	1639.7	–	4.588	3.469	2.408
x2 = 0.9355	1007.24	1002.76	–	1630.7	1628.5	–	4.148	3.115	2.173
x2 = 0.9543	1004.56	1000.47	–	1601.1	1604.2	–	3.3	2.45	1.732
x2 = 0.955	1004.46	1000.37	–	1599.8	1603	–	3.267	2.425	1.716
x2 = 0.9597	1003.74	999.76	–	1591.3	1595.9	–	3.045	2.255	1.604
x2 = 0.9699	1002.14	998.39	–	1571.1	1579.2	–	2.544	1.881	1.357
x2 = 0.9804	1000.42	996.91	–	1547.9	1560.2	–	2.001	1.487	1.098
x2 = 0.9901	998.77	995.5	–	1523.9	1540.2	–	1.468	1.112	0.853
x2 = 0.9924	998.37	995.16	–	1517.8	1535.5	–	1.337	1.022	0.794
x2 = 0.9955	997.83	994.7	–	1509.5	1528.5	–	1.158	0.899	0.714
